The target of one series is T1, GCase (Mus musculus, UniProt P17439).
T1 construct: endogenous in cells; host or cells: WT, C5aR1-/-, C5aR2-/-, Fcer1g-/- and Fcgr2b-/- mice, in vivo
T1 sequence (P17439 20-515): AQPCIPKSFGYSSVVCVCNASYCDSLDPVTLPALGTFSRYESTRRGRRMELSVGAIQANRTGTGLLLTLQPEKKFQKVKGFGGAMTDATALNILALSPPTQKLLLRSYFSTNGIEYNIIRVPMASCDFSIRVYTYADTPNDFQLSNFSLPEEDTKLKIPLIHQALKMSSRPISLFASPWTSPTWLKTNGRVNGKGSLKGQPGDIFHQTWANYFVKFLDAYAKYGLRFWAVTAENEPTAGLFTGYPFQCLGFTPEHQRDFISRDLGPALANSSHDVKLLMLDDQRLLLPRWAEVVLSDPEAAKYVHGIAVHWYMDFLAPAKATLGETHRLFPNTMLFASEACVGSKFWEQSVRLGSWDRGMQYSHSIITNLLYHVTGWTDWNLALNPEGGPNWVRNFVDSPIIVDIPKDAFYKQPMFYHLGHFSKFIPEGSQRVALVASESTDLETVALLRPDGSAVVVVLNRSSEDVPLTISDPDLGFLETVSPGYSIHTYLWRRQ
In words: CBE-induced GCase deficiency (pharmacologically-induced Gaucher disease) in mice. The series is classed as in vivo. An excerpt:
Sera from human patients with Gaucher disease (n=10) and healthy volunteers (n=15) were from the freezer and de-identified. Human patients with Gaucher disease were diagnosed at Cincinnati Children's Hospital Medical Center (CCHMC). […] The study was approved by the ethics committee at CCHMC. In vivo C5aR1 deficiency or blockade in 9V/null mice and in a CBE-induced mouse model of Gaucher disease. To assess the impact of genetic or pharmacological targeting of C5aR1 on the inflammatory response in Gaucher disease, WT (n=10) and C5aR1^−/− mice (n=10) were treated with conduritol B epoxide (CBE), which is an irreversible inhibitor of acid β-glucosidase^24. More specifically, both mouse strains were injected intraperitoneally (i.p.) with 100 mg CBE/kg body weight or vehicle (PBS)/day for up to 60 days, which was the termination point of these experiments. After 60 days of the indicated treatment with CBE, immune cells (MΦs, DCs, and T cells) were purified from lung of these mouse strains and used for measurement of GC, costimulatory molecules, and several of the pro-inflammatory cytokines. In additional experiments, WT (n=15) or 9V/null mice (n=15) were injected with 100 μl of the C5aR antagonist A8^Δ71-73 (i.p. 0.5 mg/kg) or vehicle (100 μl, PBS) on five consecutive days. Five days after the final C5aRA treatment, liver, spleen and lung were separated and measured for GC accumulation. Further, DCs and CD4^+ T cells were purified from the lung of the indicated mouse strains and measured for costimulatory molecule expression and the production of pro-inflammatory cytokines. Preparation of tissue cells. Liver, spleen, lung and BM were harvested aseptically. Single cell suspensions from liver and lung were obtained from minced pieces that were treated with Liberase Cl (0.5 mg/mL) and DNase (0.5 mg/mL) in RPMI (45 min, 37° C.). Single cell suspensions from spleen were obtained by grinding and then filtration through a 70-micron cell strainer. […] For BM cells, femurs, tibias and humeri were flushed with sterile phosphate buffered saline (PBS), followed by RBC lysis (155 mM NH4Cl, 10 mM NaHCO3, 0.1 mM EDTA), passage through a strainer. Cells were then pelleted by centrifugation at 350×g. Viable cells were counted using a Neubauer chamber and trypan blue exclusion. DCs, MΦs, and CD4^+ T lymphocytes were purified from single cell suspensions of liver, spleen, and lung using CD11c, CD11b, and CD4 (L3T4) microbeads according to the manufacturer's protocol. The purity of the cells was ˜90%-95%.
To determine levels of IgG antibodies to GC or GS in mice and human Gaucher patients, 10 μg of GC or GS were dissolved in 1 ml of methanol and water to a final concentration of 10 μg/ml. One hundred microliters of this GC solution (1 μg/well) were used to coat a 96 well ELISA plate. In case of GS, plates were first filled with 300 µl of poly L lysine solution (0.1 mg/ml). After 10 minutes, excess solution was removed and plates were thoroughly rinsed with sterile water and allowed to dry for several hours. Such plates were then coated with 100 μl of indicated GS solution (1 μg/well). Both of these GC and GS coated plates were kept overnight at room temperature followed by three washings with PBS containing 1% Tween-20 (PBST). Test sera (100 μl; 1:100) isolated from WT (n=15) and 9V/null mice (n=15), CBE-treated (n=10) and untreated WT mice (n=10), as well as healthy humans (n=15) and untreated Gaucher disease patients (n=10), and control antibodies to GC were loaded into the lipid-coated wells followed by incubation for 1.5 hours at RT. […]

Another series has as its target T2, C5a receptor 1 (Rattus norvegicus, UniProt P97520).
T2 construct: host or cells: rats, in vivo
T2 sequence (P97520 1-352): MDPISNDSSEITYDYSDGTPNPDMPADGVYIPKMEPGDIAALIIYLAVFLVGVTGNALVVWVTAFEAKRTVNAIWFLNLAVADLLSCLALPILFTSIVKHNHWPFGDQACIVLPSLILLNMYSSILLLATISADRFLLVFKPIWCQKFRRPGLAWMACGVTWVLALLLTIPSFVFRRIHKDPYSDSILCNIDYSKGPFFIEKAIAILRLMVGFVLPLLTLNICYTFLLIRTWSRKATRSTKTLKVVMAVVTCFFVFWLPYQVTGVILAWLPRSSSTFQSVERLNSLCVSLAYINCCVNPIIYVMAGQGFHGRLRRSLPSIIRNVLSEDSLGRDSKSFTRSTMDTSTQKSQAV
The settings on record: introduced orally; cited from earlier work.

Series [1] deals with DCs and CD4+ T cells. The series is described as follows: C5a stimulation of DCs and CD4+ T cells: co-stimulatory molecule expression. The series is classed as cell-based, mouse. The settings on record: WT and 9V/null cells, C5a 0, 8, 16, 32 nM, 24 h. As for the experimental part:
(§1) To assess the GC-induced C5a influence on alteration in costimulatory molecules, DCs and CD4^+ T cells purified from lung of 9V/null and background matched WT mice (n=15, each group) were stimulated ex vivo in the presence and absence of different concentration of C5a (0,8,16, and 32 nM) for 24 hours at 37° C. DCs and CD4^+ T cells were purified liver, spleen, and lung of CBE-induced chemical model of Gaucher disease in C5aR1^−/− (n=10) and background-matched WT mice (n=10). These DCs were used to perform FACS staining with antibodies to CD40, CD80, and CD86, whereas CD4^+T cells were used to perform FACS staining with antibodies to CD40L and CD69. To assess the GC induced C5a impact on cytokines and chemokines production, DCs and CD4^+T cells (1:2.5 ratio) purified from lung of 9V/null (n=15) and background-matched WT mice (n=15) were co cultured in the presence and absence of C5a (32 nM) for 48 hours in complete medium. In additional experiments, indicated ratios ([…]) of DCs and CD4^+T cells purified from lung of CBE treated and untreated WT and C5aR1^−/− mice (n=10/each group) were co-cultured for 48 hrs in complete medium. Supernatant of these experiments were used to measure […], TNF-α, IL-1β, IL-6, IL-12p40, IL-12p70, IL-23, IL-17A/F and IL-23 by ELISA. […]

The test system of series [2] is DCs and CD4+ T cells. In words: DC / CD4+ T cell co-culture with C5a: cytokine production by ELISA. The series is classed as cell-based, mouse. The following applies: cells from 9V/null mice vs WT, C5a 32 nM, 48 h co-culture. The method, then:
as §1
(In general: In an ELISA, binding on a coated surface is turned into a signal by an enzyme label.)

Where [3] appears, read: WT mice treated for 30 days with CBE vs PBS.

As to `O[C@H]1[C@H](O)[C@@H](O)[C@@H]2O[C@@H]2[C@@H]1O` (racemic) [CBE, conduritol B epoxide], the “survival after daily injections of CBE for 60 days” value at GCase (C5aR1−/− mice, 100 mg CBE/kg/day i.p.) was “survived”. Also, the “time of death under daily CBE injections” value at GCase (C5aR2−/− mice, 100 mg CBE/kg/day i.p.) lay within 29 to 35 days; on GCase (Fcer1g−/− mice, 100 mg CBE/kg/day i.p.), 29 to 36 days; on GCase (Fcgr2b−/− mice, 100 mg CBE/kg/day i.p.), 29 to 36 days; at GCase (WT mice, 100 mg CBE/kg/day i.p.), 29 to 35 days. In addition, on GCase (setting [3]), the “serum levels of C5a” value is given as “elevated”. Besides, the “serum levels of IgG2a and IgG2b antibodies to GC” value at GCase (setting [3]) is “significantly elevated”.
As for AcF-[OP(D-Cha)WR], at C5a receptor 1, the “effect in rat models of acute inflammation” value (from here on “effect in rat models”) was “beneficial”.
As to HC-[OP(D-Cha)WR], the “effect in rat models” value at C5a receptor 1 is reported as “beneficial”.
Take PMX53: the “effect in rat models” value at C5a receptor 1 was “beneficial”.

B1: C5a: small peptide of the complement anaphylatoxin family, cleaved from C5 (protein, UniProt P01031 678-751, looked up)
C5a anaphylatoxin: TLQKKIEEIAAKYKHSVVKKCCYDGACVNNDETCEQRAARISLGPRCIKAFTECCVVASQLRANISHKDMQLGR
modifications: C5a anaphylatoxin
notes: small peptide of the complement anaphylatoxin family, cleaved from C5
As to B1, the “expression levels of CD40, CD80, CD86 and CD40L and CD69” value in the series with DCs and CD4+ T cells [1] is given as “increased”. Besides, the “production of IFN-γ, TNF-α, IL-1β, IL-6, and IL-17” value in the series with DCs and CD4+ T cells [2] is “dramatically increased”.

The values above are taken from patent US11324803B2, “Methods and compositions for treatment of Gaucher Disease via modulation of C5a receptor” (Children's Hospital Medical Center, priority 2015, dated 2022).
